Data taken from article PMC2628638, “Catalytic inhibition of topoisomerase II by a novel rationally designed ATP-competitive purine analogue” (BMC Chemical Biology, 2009).

Key:
[1] = biological target: Axl (Homo sapiens, UniProt P30530); assay: Radiometric filter binding kinase assay; assay type: biochemical
Source text: (§1) Based on homology structural models of the target, a purine scaffold was designed interactively using the Macromodel modeling software. The designed purine scaffold was subsequently used as a substructure query to search the Novartis compound collection. Around 50 molecules were retrieved in this manner and screened in an ATPase assay using purified full length tagged human topoisomerase II alpha. […] Subsequently, we carried out kinetic analysis with QAP 1 in order to corroborate the mode of action. […] The data were analyzed by non-linear regression analysis using the equations corresponding to competitive, uncompetitive, and mixed inhibition (see Methods) and a statistical analysis (F-test; p ≤ 0.05) was carried out to identify the best model. […] A linearized representation (Eady-Hofstee) of one of these experiments is depicted in Figure 1D. To confirm the mode of action of QAP 1, inhibition studies were also carried out in the presence of different concentration of the inhibitor at different ATP concentrations and the IC50 values were determined. […] Next, QAP 1 was tested against a panel of kinases in a radiometric assay. With the exception of subtle inhibition of the Ret and c-Src tyrosine kinases no effect of the compound was observed on other kinases in the panel, even at the highest concentration tested (Table 1). Thus, QAP 1 is a relatively potent inhibitor of topoisomerase II ATPase function with fairly good selectivity over various serine/threonine/tyrosine protein kinases. To test if QAP 1 inhibited topoisomerase II DNA strand passage activity, nuclear extracts of HL-60 leukemic cells were incubated with catenated kDNA in the presence of increasing concentrations of QAP 1.

[2] = biological target: c-Abl-T315I (Homo sapiens, UniProt P00519, T315I); assay: Radiometric filter binding kinase assay; assay type: biochemical
Source text: as §1

[3] = biological target: Flt-3 (Homo sapiens, UniProt P36888); assay: Radiometric filter binding kinase assay; assay type: biochemical
Source text: as §1

[4] = biological target: FGFR3-K560E; assay: Radiometric filter binding kinase assay; assay type: biochemical
Source text: as §1

[5] = biological target: PDK1 (Homo sapiens, UniProt O15530); assay: Radiometric filter binding kinase assay; assay type: biochemical
Chain of PDK1 (O15530 whole entry): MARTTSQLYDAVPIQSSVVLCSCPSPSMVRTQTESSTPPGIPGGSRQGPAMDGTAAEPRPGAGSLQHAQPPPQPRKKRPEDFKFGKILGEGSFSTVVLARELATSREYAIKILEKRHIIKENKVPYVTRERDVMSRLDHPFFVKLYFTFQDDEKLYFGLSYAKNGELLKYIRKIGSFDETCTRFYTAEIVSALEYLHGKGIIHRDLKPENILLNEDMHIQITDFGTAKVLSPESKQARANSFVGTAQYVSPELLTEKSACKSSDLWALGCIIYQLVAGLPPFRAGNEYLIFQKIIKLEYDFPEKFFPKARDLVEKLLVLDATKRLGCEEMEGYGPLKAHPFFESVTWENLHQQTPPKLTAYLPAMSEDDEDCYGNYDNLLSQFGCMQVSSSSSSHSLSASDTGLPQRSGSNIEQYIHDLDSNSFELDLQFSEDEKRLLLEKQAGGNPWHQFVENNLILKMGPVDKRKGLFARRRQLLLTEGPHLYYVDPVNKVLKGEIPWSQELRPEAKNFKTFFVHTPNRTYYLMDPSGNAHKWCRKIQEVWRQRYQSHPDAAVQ
Source text: as §1

[6] = biological target: c-Met (Homo sapiens, UniProt P08581); assay: Radiometric filter binding kinase assay; assay type: biochemical
Source text: as §1

[7] = biological target: KDR (Homo sapiens, UniProt P35968); assay: Radiometric filter binding kinase assay; assay type: biochemical
Source text: as §1

[8] = biological target: PKB; assay: Radiometric filter binding kinase assay; assay type: biochemical
Source text: as §1

[9] = biological target: EphB4 (Homo sapiens, UniProt P54760); assay: Radiometric filter binding kinase assay; assay type: biochemical
Source text: as §1

[10] = biological target: Ret (Homo sapiens, UniProt P07949); assay: Radiometric filter binding kinase assay; assay type: biochemical; conditions: mean of two independent experiments ± SD
Chain of Ret (P07949 29-1114, species assumed): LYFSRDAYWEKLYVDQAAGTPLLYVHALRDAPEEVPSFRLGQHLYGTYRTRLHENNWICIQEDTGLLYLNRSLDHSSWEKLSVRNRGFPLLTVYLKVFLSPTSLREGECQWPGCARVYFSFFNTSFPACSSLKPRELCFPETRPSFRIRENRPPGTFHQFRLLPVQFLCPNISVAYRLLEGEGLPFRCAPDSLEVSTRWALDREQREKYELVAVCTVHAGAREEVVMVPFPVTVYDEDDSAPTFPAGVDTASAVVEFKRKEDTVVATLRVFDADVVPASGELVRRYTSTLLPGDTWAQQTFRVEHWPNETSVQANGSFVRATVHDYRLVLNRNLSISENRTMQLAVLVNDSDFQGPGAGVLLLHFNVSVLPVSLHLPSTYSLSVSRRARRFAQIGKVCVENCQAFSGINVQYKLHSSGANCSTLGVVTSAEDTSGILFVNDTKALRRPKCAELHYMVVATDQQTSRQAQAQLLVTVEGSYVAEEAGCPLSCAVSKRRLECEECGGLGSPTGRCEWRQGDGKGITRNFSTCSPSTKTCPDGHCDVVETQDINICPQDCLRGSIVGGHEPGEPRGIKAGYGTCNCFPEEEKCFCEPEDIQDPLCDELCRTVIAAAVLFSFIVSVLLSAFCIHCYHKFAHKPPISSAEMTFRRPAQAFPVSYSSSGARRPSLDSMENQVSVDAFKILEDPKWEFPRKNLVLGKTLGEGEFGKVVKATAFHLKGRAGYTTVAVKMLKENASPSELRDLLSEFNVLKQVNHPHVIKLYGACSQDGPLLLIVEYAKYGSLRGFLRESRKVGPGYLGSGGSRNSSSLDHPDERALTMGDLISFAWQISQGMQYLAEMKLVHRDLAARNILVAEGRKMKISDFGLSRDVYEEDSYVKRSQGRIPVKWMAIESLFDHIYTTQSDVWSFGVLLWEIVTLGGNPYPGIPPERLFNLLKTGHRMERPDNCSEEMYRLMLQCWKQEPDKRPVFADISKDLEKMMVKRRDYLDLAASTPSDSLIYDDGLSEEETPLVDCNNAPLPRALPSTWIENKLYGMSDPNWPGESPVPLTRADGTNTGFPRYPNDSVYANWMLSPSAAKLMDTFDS
Source text: as §1

[11] = biological target: c-Abl (Homo sapiens, UniProt P00519); assay: Radiometric filter binding kinase assay; assay type: biochemical
Source text: as §1

[12] = biological target: Jak2 (Homo sapiens, UniProt O60674); assay: Radiometric filter binding kinase assay; assay type: biochemical
Source text: as §1

[13] = biological target: CDK1/CycB (Homo sapiens, UniProt P06493); assay: Radiometric filter binding kinase assay; assay type: biochemical
Source text: as §1

[14] = biological target: Fak (Homo sapiens, UniProt Q05397); assay: Radiometric filter binding kinase assay; assay type: biochemical
Chain of Fak (Q05397 whole entry, species assumed): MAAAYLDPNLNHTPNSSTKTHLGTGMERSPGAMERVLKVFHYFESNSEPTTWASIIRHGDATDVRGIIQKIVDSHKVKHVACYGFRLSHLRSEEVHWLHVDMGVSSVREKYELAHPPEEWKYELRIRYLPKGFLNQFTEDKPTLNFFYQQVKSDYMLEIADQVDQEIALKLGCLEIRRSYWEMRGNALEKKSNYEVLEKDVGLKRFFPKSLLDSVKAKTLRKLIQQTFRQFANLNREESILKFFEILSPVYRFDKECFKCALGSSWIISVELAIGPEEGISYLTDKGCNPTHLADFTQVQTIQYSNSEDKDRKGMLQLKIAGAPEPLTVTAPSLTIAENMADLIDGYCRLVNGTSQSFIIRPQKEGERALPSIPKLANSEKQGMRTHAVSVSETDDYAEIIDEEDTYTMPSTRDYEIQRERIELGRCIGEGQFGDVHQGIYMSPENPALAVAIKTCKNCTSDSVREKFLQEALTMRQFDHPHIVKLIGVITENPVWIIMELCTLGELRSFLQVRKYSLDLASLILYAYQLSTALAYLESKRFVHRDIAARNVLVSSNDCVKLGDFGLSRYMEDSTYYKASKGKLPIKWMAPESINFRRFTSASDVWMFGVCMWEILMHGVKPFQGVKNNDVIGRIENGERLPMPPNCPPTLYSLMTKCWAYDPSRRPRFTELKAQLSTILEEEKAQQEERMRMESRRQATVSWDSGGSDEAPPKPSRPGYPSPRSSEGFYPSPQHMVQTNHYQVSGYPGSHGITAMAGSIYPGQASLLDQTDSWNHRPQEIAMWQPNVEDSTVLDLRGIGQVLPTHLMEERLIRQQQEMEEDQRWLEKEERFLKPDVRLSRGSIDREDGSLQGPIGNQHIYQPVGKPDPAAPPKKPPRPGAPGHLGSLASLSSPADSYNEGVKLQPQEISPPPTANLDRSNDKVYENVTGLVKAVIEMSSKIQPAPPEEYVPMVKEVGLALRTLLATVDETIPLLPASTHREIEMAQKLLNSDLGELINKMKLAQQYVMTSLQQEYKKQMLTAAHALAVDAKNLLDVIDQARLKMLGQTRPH
Source text: as §1

[15] = biological target: IGF-1R (Homo sapiens, UniProt P08069); assay: Radiometric filter binding kinase assay; assay type: biochemical
Source text: as §1

[16] = biological target: Tek (Homo sapiens, UniProt Q02763); assay: Radiometric filter binding kinase assay; assay type: biochemical
Chain of Tek (Q02763 23-1124, species assumed): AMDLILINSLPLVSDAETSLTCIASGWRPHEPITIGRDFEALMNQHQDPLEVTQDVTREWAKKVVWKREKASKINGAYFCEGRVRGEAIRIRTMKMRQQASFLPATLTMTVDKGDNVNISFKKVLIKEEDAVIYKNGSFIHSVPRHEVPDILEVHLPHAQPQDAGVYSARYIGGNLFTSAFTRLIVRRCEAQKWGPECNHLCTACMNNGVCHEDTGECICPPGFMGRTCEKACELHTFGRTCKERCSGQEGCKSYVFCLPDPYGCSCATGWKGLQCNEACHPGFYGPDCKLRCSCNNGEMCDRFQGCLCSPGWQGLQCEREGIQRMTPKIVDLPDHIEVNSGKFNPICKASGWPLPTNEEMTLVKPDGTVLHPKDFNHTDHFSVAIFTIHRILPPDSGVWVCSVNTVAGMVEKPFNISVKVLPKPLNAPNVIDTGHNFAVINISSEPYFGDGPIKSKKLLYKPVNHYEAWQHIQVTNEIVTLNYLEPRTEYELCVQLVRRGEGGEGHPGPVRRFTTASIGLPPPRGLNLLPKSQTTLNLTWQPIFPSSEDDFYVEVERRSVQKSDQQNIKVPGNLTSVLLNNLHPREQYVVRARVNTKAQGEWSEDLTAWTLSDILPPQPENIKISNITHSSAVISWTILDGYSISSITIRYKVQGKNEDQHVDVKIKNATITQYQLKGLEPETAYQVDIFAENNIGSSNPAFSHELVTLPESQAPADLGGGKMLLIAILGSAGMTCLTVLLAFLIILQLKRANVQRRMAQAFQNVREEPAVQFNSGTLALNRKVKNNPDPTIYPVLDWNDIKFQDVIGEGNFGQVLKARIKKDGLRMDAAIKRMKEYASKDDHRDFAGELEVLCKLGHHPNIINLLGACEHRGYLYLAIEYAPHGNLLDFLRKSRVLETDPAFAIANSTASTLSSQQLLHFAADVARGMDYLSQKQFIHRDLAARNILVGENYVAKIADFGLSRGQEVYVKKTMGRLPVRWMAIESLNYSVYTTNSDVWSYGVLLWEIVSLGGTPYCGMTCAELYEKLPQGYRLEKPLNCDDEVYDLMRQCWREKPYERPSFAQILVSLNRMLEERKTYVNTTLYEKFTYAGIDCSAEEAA
Source text: as §1

[17] = biological target: c-Src (Homo sapiens, UniProt P12931); assay: Radiometric filter binding kinase assay; assay type: biochemical; conditions: mean of two independent experiments ± SD
Source text: as §1

[18] = biological target: HER-1 (Homo sapiens, UniProt P00533); assay: Radiometric filter binding kinase assay; assay type: biochemical
Chain of HER-1 (P00533 25-1210, species assumed): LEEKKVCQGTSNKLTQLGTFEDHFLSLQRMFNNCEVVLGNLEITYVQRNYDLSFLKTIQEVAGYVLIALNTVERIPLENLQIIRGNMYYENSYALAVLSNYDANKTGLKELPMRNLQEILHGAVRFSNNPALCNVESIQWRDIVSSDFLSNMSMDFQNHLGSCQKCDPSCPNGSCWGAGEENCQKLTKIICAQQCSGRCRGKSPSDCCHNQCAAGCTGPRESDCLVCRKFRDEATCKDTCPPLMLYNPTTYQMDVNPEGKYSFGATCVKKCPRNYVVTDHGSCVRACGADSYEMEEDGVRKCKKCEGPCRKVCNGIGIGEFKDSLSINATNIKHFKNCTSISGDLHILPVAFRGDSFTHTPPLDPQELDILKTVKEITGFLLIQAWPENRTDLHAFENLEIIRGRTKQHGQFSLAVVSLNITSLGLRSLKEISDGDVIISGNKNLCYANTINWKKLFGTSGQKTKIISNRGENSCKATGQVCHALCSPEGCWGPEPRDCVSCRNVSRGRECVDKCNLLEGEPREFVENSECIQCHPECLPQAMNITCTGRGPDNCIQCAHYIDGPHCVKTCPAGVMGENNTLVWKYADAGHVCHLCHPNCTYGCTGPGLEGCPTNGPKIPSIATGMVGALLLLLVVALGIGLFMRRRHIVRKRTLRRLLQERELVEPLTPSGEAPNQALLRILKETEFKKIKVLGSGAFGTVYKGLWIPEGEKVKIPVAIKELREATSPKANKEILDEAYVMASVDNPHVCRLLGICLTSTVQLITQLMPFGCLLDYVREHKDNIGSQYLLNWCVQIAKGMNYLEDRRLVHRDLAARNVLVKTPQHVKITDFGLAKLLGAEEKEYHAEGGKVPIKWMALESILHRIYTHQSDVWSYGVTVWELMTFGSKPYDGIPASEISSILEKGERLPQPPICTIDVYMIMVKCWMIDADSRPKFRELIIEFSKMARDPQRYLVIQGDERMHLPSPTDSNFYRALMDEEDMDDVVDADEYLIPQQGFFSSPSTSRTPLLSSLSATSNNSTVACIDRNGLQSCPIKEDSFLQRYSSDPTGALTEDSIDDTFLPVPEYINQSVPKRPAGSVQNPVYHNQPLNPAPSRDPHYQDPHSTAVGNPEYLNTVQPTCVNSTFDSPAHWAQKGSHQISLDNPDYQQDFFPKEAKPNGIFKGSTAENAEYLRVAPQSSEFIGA
Source text: as §1

[19] = biological target: BRAF-V600E (Homo sapiens, UniProt P15056, V600E); assay: Radiometric filter binding kinase assay; assay type: biochemical
Source text: as §1

[20] = tested on: HL-60 cells; assay: Proliferation assay over 72 hours; assay type: cell-based; conditions: Homo sapiens, read-out: half-maximal growth inhibitory concentration (GI50)

- IC50 [1]: > 10 µM
- IC50 [2]: > 10 µM
- IC50 [3]: > 10 µM
- IC50 [4]: > 10 µM
- IC50 [5]: > 10 µM
- IC50 [6]: > 10 µM
- IC50 [7]: > 10 µM
- IC50 [8]: > 10 µM
- IC50 [9]: > 10 µM
- IC50 [10]: 1.35 ± 0.05 µM
- IC50 [11]: > 10 µM
- IC50 [12]: > 10 µM
- IC50 [13]: > 10 µM
- IC50 [14]: > 10 µM
- IC50 [15]: > 10 µM
- IC50 [16]: > 10 µM
- IC50 [17]: 1.7 ± 0.5 µM
- IC50 [18]: > 10 µM
- IC50 [19]: > 10 µM
- GI50 [20]: 8 µM
SMILES: CCc1nc2nc(Nc3ccc4nc(OCCN5CCOCC5)ccc4c3)nc(NC(C)(C)C)c2[nH]1 [QAP 1]
